Calls of active or inactive are those of the source. Rule as the data show it: actives have a measured IC50 and inactives only a lower limit.

In the assay the target is Envelope glycoprotein gp160 (Human immunodeficiency virus 1, UniProt Q6QLK5). Nature of the assay: inhibitors of HIV fusion peptide binding, primary screen, biochemical, uHTS, fluorescence dequenching (AID 1986).
Envelope glycoprotein gp160, sequence (Q6QLK5 whole entry, the tested form may be a part): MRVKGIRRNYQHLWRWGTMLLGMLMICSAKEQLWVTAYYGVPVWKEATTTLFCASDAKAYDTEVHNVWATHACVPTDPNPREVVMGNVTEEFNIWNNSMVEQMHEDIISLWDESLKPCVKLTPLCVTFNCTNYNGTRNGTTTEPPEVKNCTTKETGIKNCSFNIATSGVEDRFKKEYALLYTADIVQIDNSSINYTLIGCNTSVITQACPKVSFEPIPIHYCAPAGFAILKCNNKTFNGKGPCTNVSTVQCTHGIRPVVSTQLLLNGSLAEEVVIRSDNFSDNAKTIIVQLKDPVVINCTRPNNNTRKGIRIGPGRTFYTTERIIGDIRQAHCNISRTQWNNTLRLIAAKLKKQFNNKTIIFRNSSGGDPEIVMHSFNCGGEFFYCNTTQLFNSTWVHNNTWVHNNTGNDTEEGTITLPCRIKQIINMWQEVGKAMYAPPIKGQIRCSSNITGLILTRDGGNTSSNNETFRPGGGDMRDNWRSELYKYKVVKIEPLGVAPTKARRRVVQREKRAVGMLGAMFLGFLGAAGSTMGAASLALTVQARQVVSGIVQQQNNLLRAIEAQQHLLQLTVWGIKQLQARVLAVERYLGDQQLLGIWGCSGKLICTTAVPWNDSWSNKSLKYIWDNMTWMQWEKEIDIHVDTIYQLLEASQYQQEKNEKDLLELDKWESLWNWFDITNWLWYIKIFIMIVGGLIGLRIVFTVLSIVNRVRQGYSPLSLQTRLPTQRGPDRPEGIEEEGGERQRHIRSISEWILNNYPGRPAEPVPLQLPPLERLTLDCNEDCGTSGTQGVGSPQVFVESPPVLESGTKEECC
As a reminder, the IC50 is the concentration at which inhibition is half-maximal. In the case of `C=CC#CC[N+]1(CC#Cc2ccccc2)CCOCC1`, the IC50 was 22.5 µM (active).
In the case of `Cc1ccc(-c2nc(SCC(=O)Nc3ccccc3OC(F)F)c3c(C)c(C(=O)O)sc3n2)cc1`, the IC50 is 15.1 µM (active).
Regarding `O=C(O)c1cccc(N/N=C/c2cc(Br)cc(Br)c2O)c1`, the IC50 was 17.1 µM (active).

Values taken from ChEMBL document CHEMBL1201862, “PubChem BioAssay data set” (2004).
